# Patent US11737462B2, “Methods for modulating plant response to environmentally-induced stress” (Howard University, priority 2012, dated 2023)
# How the values were obtained:
# RACK1A = RACK1A (Arabidopsis thaliana, UniProt O24456); assay: in-vitro assay of tyrosine phosphorylation (Y248) based homodimerization of RACK1A; assay type: biochemical
# Source text: A crystal structure of Arabidopsis thaliana RACK1 protein has been reported. Deducing the crystal structure of the Arabidopsis RACK1A protein highlighted the potential functional residues of the protein. Noteworthy in the structure was the functionally conserved tyrosine phosphorylation residue (Y248) that has been implicated in RACK1A function. Therefore, it was undertaken to identify a chemical inhibitor of Y248 phosphorylation that would serve as a potential “anti-stress” compound in countering environmental stresses in plants. In order to identify small compounds occupying the Y248 pocket, docking simulations with a subset of 30,000 compounds were performed. Based on ranking with an energy cut-off of 25 kcal/mol, 3,011 compounds were then selected. Upon further re-ranking, 46 lead compounds were identified and 11 compounds were screened for their efficacy in an in-vitro assay. […] Those six compounds include SD-29, SD-29-9, SD-29-11, SD-29-22, SD-34, and SD-125.
# Arabidopsis plants [1] = assay: salt stress (150 mM salt) in Arabidopsis plants; assay type: in vivo, Arabidopsis thaliana; conditions: 100 μM compound plus 150 mM salt, two weeks, 22° C., vs DMSO plus salt
# Procedure: In the examples described herein, the test compounds (e.g., SD-29 or analogs thereof) were dissolved in dimethyl sulfoxide (DMSO) to provide a 20 mM concentration. Micromolar concentrations were then prepared as needed by addition to the water incubation media. Unless stated otherwise, the experimental plants were incubated with the roots immersed in the water containing the compound. The control plants received only DMSO in the same amount as that of the compound. In the first experiment, Arabidopsis plants were treated with 150 mM salt for two weeks. One plant in each group was treated with 100 μM SD-29 plus 150 mM salt and the other plant in each group was treated with DMSO plus 150 mM salt. […] The plants were treated with the indicated treatment twice during the experiment.
# tomato plants = assay: salt-induced stress in tomato plants; assay type: in vivo; conditions: 60 μM compound plus 250 mM NaCl, five days, about 24° C.
# Procedure: In the examples described herein, the test compounds (e.g., SD-29 or analogs thereof) were dissolved in dimethyl sulfoxide (DMSO) to provide a 20 mM concentration. Micromolar concentrations were then prepared as needed by addition to the water incubation media. Unless stated otherwise, the experimental plants were incubated with the roots immersed in the water containing the compound. The control plants received only DMSO in the same amount as that of the compound. Salt-induced stress was evaluated with tomato plants at room temperature (about 24° C.) for five days. The plants received sufficient incubation media to last through the five day experiment. Plant A received 60 μM SD-29 plus 250 mM NaCl and plant B received 250 mM NaCl (plus DMSO in the same volume as the volume of SD-29 received by plant A) in the incubation medium.
# pepper plants = assay: salt-induced stress in pepper plants; assay type: in vivo; conditions: 60 μM compound plus 250 mM NaCl, 48 hours, about 24° C.
# Procedure: In the examples described herein, the test compounds (e.g., SD-29 or analogs thereof) were dissolved in dimethyl sulfoxide (DMSO) to provide a 20 mM concentration. Micromolar concentrations were then prepared as needed by addition to the water incubation media. Unless stated otherwise, the experimental plants were incubated with the roots immersed in the water containing the compound. The control plants received only DMSO in the same amount as that of the compound.
# Salt-induced stress was evaluated with pepper plants at room temperature (about 24° C.) for 48 hours. All plants received sufficient incubation media to last the seven days. Plant A received 60 μM SD-29 plus 250 mM NaCl and plant B received 250 mM NaCl in the incubation medium with DMSO.
# Cu/Zn SOD = assay: native gel analysis of superoxide dismutase activity in pepper leaf lysate; assay type: in vivo; conditions: 60 μM compound plus 250 mM NaCl, vs DMSO treated plants
# Procedure: Native gel analysis was performed on a lysate prepared from the pepper plant leaves in FIG. 8. The gel is stained for detecting enzymatic activity of different isoforms of superoxide dismutase—key enzymes that detoxify the reactive oxygen species which usually develop during the stress conditions. […] Therefore, it appears that SD-29 may help detoxify the cellular reactive oxygen species generated during the salt stress conditions.
# rice RACK1A = molecular target: T1, rice RACK1A (Oryza sativa subsp. japonica, UniProt P49027); assay: western blot with anti-pY248 of rice leaf lysates under salt stress; assay type: in vivo; conditions: 60 μM compound and 250 mM NaCl, 75 μg protein per lane
# T1 construct: from tissue; host or cells: rice leaves
# Procedure: The rice leaves were also analyzed by Western blot. Lysates were prepared from the leaves and western blot analysis was carried out using standard methods. 75 μg protein were loaded per lane. The membrane containing transferred proteins were probed with anti-pY248, which is an antibody raised to specifically detect phosphorylated tyrosine at residue 248 of RACK1A.
# chloroplastic Cu—Zn SOD = assay: native gel assay of SOD activity in rice leaves; assay type: in vivo; conditions: set up as FIG. 5: 60 μM compound, 250 mM NaCl; wild-type and RACK1 over-expressing (OX) rice
# Procedure: Native gel analysis was performed on a lysate prepared from the pepper plant leaves in FIG. 8. The gel is stained for detecting enzymatic activity of different isoforms of superoxide dismutase—key enzymes that detoxify the reactive oxygen species which usually develop during the stress conditions. […] Therefore, it appears that SD-29 may help detoxify the cellular reactive oxygen species generated during the salt stress conditions. The wild-type rice plants were compared to a rice plant over-expressing rice RACK1 protein (referred to as “OX”). The OX plants were treated as described in this example for the wild-type rice plant. Native gel assay was performed as described for FIG. 8 and the experimental set up was exactly the same as described for FIG. 5.
# Arabidopsis plants [2] = assay: drought-induced stress (sorbitol) in Arabidopsis plants; assay type: in vivo, Arabidopsis thaliana; conditions: 150 mM sorbitol plus 60 μM compound, about three weeks, room temperature
# Procedure: In the examples described herein, the test compounds (e.g., SD-29 or analogs thereof) were dissolved in dimethyl sulfoxide (DMSO) to provide a 20 mM concentration. Micromolar concentrations were then prepared as needed by addition to the water incubation media. Unless stated otherwise, the experimental plants were incubated with the roots immersed in the water containing the compound. The control plants received only DMSO in the same amount as that of the compound. The effect of SD-29 on modulating drought-induced stress was evaluated with Arabidopsis plants for about three weeks at room temperature. Sorbitol was used to imitate drought conditions. All plants received sufficient incubation media to last the seven days. Plant A was treated with DMSO (in a volume equal to the volume of SD-29 used for Plants B and C), plant B was treated with 150 mM sorbitol plus 60 μM SD-29, plant C was treated with 60 μM SD-29, and plant D was treated with 150 mM sorbitol in the incubation medium.
# Arabidopsis leaves = assay: H2O2 accumulation in Arabidopsis leaves (DAB staining); assay type: in vivo, Arabidopsis thaliana; conditions: 5 μM H2O2 and DAB overnight, vs DMSO only
# Procedure: Arabidopsis leaves were treated with 5 μM H2O2 and 3,3′-diaminobenzidene (DAB) with and without SD-29 overnight. A control included DMSO only (included in the same volume as SD-29). The brown spots indicate sites of accumulation of H2O2.
# Chain of RACK1A (O24456 whole entry): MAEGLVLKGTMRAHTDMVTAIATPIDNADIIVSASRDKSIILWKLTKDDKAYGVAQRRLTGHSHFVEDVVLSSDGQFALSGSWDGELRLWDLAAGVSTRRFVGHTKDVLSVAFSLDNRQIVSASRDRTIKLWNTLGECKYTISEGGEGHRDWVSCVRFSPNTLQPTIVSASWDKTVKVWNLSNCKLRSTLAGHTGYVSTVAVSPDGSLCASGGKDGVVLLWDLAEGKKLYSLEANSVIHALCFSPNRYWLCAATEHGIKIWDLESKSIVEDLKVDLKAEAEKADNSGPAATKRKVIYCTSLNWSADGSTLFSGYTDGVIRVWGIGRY
# T1 sequence (P49027 whole entry): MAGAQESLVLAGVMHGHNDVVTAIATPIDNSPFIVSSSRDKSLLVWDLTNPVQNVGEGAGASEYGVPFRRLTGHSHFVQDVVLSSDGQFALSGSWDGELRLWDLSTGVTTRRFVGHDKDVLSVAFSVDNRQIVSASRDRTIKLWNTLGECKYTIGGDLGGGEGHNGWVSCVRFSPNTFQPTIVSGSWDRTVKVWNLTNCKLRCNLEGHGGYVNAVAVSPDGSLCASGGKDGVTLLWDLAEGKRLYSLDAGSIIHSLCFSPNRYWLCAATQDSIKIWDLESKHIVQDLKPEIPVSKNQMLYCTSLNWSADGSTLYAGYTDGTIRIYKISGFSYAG
smiles,measurement,setting,value
Nn1c(S)nnc1-c1ccc(F)cc1 [SD-29],IC50,RACK1A; data not shown,12.5 µM
same,tyrosine phosphorylation (Y248) based homodimerization of RACK1A proteins,RACK1A; in-vitro assay,prevent tyrosine phosphorylation (Y248) based homodimerization of RACK1A proteins
same,salt stress induced chlorosis of Arabidopsis plants,Arabidopsis plants [1],effective to allow the Arabidopsis plants to withstand the salt stress induced chlorosis
same,tomato plant condition in high salt,tomato plants,thrived (did not wilt) in the high salt conditions
same,pepper plant condition in high salt,pepper plants,thrived in the high salt conditions (with no chlorosis)
same,cytoplasmic and chloroplastic Cu/Zn SOD enzyme activities in pepper leaves,Cu/Zn SOD,caused upregulation of both the cytoplasmic (lower band) and chloroplastic (upper band) Cu/Zn SOD enzyme activities
same,rice RACK1A tyrosine (Y248) phosphorylation under salt stress,rice RACK1A,significantly inhibited rice RACK1A tyrosine phosphorylation
same,chloroplastic Cu—Zn SOD activity in rice leaves,chloroplastic Cu—Zn SOD,upregulates chloroplastic Cu—Zn SOD activity
same,plant performance under drought-imitating sorbitol,Arabidopsis plants [2],performed much better than the plant treated with sorbitol alone
same,H2O2 accumulation in leaves,Arabidopsis leaves,prevents H2O2 accumulation in the leaves
